Structures are written as SMILES.

The target in the first experiment is T1, human OX2R (Homo sapiens, UniProt O43614).
T1 sequence (O43614 1-444): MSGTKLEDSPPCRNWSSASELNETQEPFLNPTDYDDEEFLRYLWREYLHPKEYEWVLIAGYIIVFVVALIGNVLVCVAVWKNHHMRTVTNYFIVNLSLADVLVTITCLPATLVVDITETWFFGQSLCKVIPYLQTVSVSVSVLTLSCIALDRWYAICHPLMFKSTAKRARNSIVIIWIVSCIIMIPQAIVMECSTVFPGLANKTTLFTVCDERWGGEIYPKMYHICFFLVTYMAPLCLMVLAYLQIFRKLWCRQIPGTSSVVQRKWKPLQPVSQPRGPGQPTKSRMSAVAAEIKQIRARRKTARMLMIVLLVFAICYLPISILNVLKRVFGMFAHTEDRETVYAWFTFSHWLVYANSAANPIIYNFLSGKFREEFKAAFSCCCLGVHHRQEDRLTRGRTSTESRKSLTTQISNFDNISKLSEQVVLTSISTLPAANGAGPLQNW
Briefly: IPOne (IP-1) orexin receptor agonist assay in CHO cells expressing human OX2R. As to conditions: CHO, hOX2R IP-One; percentage of mean max effect of a reference compound at 1 uM with 100% activity.
Method: In atypical experiment, the OX1 and OX2 receptor agonist activity is determined in accordance with the following general experimental method. Chinese hamster ovary (CHO) cells expressing human OX1R and/or the human OX2R were grown in Iscove's modified DMEM containing glutaMAX™, 1% G418, 100 U/mL penicillin, 100 μg/mL streptomycin and 10% heat-inactivated qualified fetal bovine serum (FBS). […] During this incubation, IP-one detection reagents were prepared (38:1:1 lysis buffer:D2:AB-cryptate reagents).
For each compound, data were fit to a four parameter logistic fit (ActivityBase software) and the EC50 was reported as the inflection point of the resulting curve.
Consider `COc1cc2nc(c1F)OCCCOC(=O)N1C(COC3CCC2CC3)[C@@H](NS(C)(=O)=O)C[C@H]1C` (some centres unmarked) [Example 75, N-((2^1S,2^4S,5^2R,5^3S,5^5R)-1^4-fluoro-1^3-methoxy-5^5-methyl-6-oxo-3,7,11-trioxa-1(2,6)-pyridina-5(2,1)-pyrrolidina-2(1,4)-cyclohexanacycloundecaphane-5^3-yl)methane sulfonamide], for which the maximal response (Emax) was determined as 97.2%.
Take `C[C@@H]1C[C@H](NS(=O)(=O)N(C)C)[C@@H]2COC3CCC(CC3)c3cccc(c3)OCCCCC(=O)N12` [Example 10, N′-((2^1S,2^4S,5^2R,5^3S, 5^5R)-5^5-methyl-6-oxo-3,11-dioxa-5(2,1)-pyrrolidina-1(1,3)-benzena-2(1,4)-cyclohexanacycloundecaphane-5^3-yl)-N,N-dimethyl-sulfamide]: the maximal response (Emax) was 101%.
Take `C[C@@H]1C[C@H](NS(C)(=O)=O)C2COC3CCC(CC3)c3cccc(c3)OCCCCC(=O)N21` (some centres unmarked) [Example 19, N-((2^1S,2^4S, 5^2R,5^3S,5^5R)-5^5-methyl-6-oxo-3,11-dioxa-5(2,1)-pyrrolidina-1(1,3)-benzena-2(1,4)-cyclohexana-cyclounde-caphane-5^3-yl) methanesulfonamide]: the Emax turned out to be 101%.
Still for that read-out and setting: with `COC[C@@H]1C[C@H](NS(C)(=O)=O)[C@@H]2COC3CCC(CC3)c3cccc(F)c3/C=C/OC(=O)N12` [Example 3, N-((2^1R,2^4R,5^2R,5^3S,5^5S,E)-1^3-fluoro-5^5-(methoxymethyl)-6-oxo-3,7-dioxa-5(2,1)-pyrrolidina-1(1,2)-benzena-2(1,4)-cyclohexanacyclonaphan-8-en-5^3-yl)methanesulfonamide] the figure was 99.5%; with `C[C@@H]1C[C@H](NS(C)(=O)=O)C2COC3CCC(CC3)c3nc(ccc3OC(F)(F)F)OCCCOC(=O)N21` (some centres unmarked) [Example 59, N-((2^1S,2^4S,5^2R,5^3S,5^5R)-5^5-methyl-6-oxo-1^3-(trifluoromethoxy)-3,7,11-trioxa-1(2,6)-pyridina-5(2,1)-pyrrolidina-2(1,4)-cyclohexanacycloundecaphane-5^3-yl)methanesulfonamide], 96.9%.
In turn, `COc1cc2nc(c1)C1CCC(CC1)OCC1[C@@H](NS(=O)(=O)CF)C[C@@H](C)N1C(=O)OCCCO2` (some centres unmarked) [Example 107, 1-fluoro-N-((2^1R,2^4R,5^2R, 5^3S,5^5R)-1^4-methoxy-5^5-methyl-6-oxo-3,7,11-trioxa-1(2,6)-pyridina-5(2,1)-pyrrolidina-2(1,4)-cyclohexanacycloundecaphane-5^3-yl)methanesulfonamide] returned an Emax of 101%.
The same measure, in the same setting: with `C[C@@H]1C[C@H](NS(C)(=O)=O)C2COC3CCC(CC3)c3cc(C(F)(F)F)cc(n3)OCCOC(=O)N21` (some centres unmarked) [Example 54, N-((2^1S,2^4S,5^2R,5^3S,5^5R)-5^5-methyl-6-oxo-1^4-(trifluoromethyl)-3,7,10-trioxa-1(2,6)-pyridina-5(2,1)-pyrrolidina-2(1,4)-cyclohexanacyclodecaphane-5^3-yl)methanesulfonamide] the figure was 100%.
The molecule `C[C@@H]1C[C@H](NS(C)(=O)=O)C2COC3CCC(CC3)c3ccc(C(F)(F)F)c(n3)OCCCOC(=O)N21` (some centres unmarked) [Example 65, N-((2^1S,2^4S,5^2R,5^3S,5^5R)-5^5-methyl-6-oxo-1^5-(trifluoromethyl)-3,7,11-trioxa-1(2,6)-pyridina-5(2,1)-pyrrolidina-2(1,4)-cyclohexanacycloundecaphane-5^3-yl)methanesulfonamide] showed an Emax of 103%.
The molecule `C[C@@H]1C[C@H](NS(C)(=O)=O)[C@@H]2CO[C@H]3CC[C@H](CC3)c3cc(C(F)(F)F)cc(n3)OCCCOC(=O)N12` [Example 51, N-((2^1S,2^4S,5^2R,5^3S,5^5R)-5^5-methyl-6-oxo-14-(trifluoromethyl)-3,7,11-trioxa-1(2,6)-pyridina-5(2,1)-pyrrolidina-2(1,4)-cyclohexanacycloundecaphane-5^3-yl)methanesulfonamide] returned a maximal response (Emax) of 99.2%.
Take `C[C@@H]1C[C@H](NS(C)(=O)=O)C2COC3CCC(CC3)c3ccc(OC(F)(F)F)c(n3)OCCCOC(=O)N21` (some centres unmarked) [Example 73, N-((2^1S,2^4S,5^2R,5^3S,5^5R)-5^5-methyl-6-oxo-1^5-(trifluoromethoxy)-3,7,11-trioxa-1(2,6)-pyridina-5(2,1)-pyrrolidina-2(1,4)-cyclohexanacycloundecaphane-5^3-yl)methanesulfonamide]: the Emax stood at 100%.
As to `C[C@@H]1C[C@H](NS(C)(=O)=O)C2COC3CCC(CC3)c3cc(cc(C(F)(F)F)c3)OCCCOC(=O)N21` (some centres unmarked) [Example 49, N-((2^1S,2^4S, 5^2R,5^3S,5^5R)-5^5-methyl-6-oxo-1^5-(trifluoro-methyl)-3,7,11-trioxa-5(2,1)-pyrrolidina-1(1,3)-benzena-2(1,4)-cyclohexana-cyclounde-caphane-5^3-yl)methane-sulfonamide], the Emax came out at 101%.
Still for that read-out and setting: the same measure for `C[C@@H]1C[C@H](NS(C)(=O)=O)C2COC3CCC(CC3)c3cc(F)cc(c3)OCCCCC(=O)N21` (some centres unmarked) [Example 44, N-((2^1S,2^4S, 5^2R,5^3S,5^5R)-1^5-fluoro-5^5-methyl-6-oxo-3,11-dioxa-5(2,1)-pyrrolidina-1(1,3)-benzena-2(1,4)-cyclohexana-cyclounde-caphane-5^3-yl)methane-sulfonamide]: 102%; for `C[C@@H]1C[C@H](NS(C)(=O)=O)C2COC3CCC(CC3)c3ccc(F)c(n3)NCCCOC(=O)N21` (some centres unmarked) [Example 93, N-((2^1S,2^4S,5^2R,5^3S,5^5R)-1^5-fluoro-5^5-methyl-6-oxo-3,7-dioxa-11-aza-1(2,6)-pyridina-5(2,1)-pyrrolidina-2(1,4)-cyclohexanacycloundecaphane-5^3-yl)methanesulfonamide]: 103%.
Same read-out and setting: with `C[C@@H]1C[C@H](NS(C)(=O)=O)C2COC3CCC(CC3)c3nc(ccc3C(F)(F)F)N(C)CCCOC(=O)N21` (some centres unmarked) [Example 94, N-((2^1S,2^4S,5^2R,5^3S,5^5R)-5^5,1^1-dimethyl-6-oxo-1^3-(trifluoromethyl)-3,7-dioxa-11-aza-1(2,6)-pyridina-5(2,1)-pyrrolidina-2(1,4)-cyclohexanacycloundecaphane-5^3-yl)methanesulfonamid] the figure was 37.5%; with `C[C@@H]1C[C@H](NS(C)(=O)=O)C2COC3CCC(CC3)c3ccc(F)c(n3)NCCOC(=O)N21` (some centres unmarked) [Example 92, N-((2^1S,2^4S,5^2R,5^3S,5^5R)-1^5-fluoro-5^5-methyl-6-oxo-3,7-dioxa-10-aza-1(2,6)-pyridina-5(2,1)-pyrrolidina-2(1,4)-cyclohexanacyclodecaphane-5^3-yl)methanesulfonamide], 98.9%.
As for `COc1cc2nc(c1)C1CCC(CC1)OCC1[C@@H](NS(C)(=O)=O)C[C@@H](C)N1C(=O)OCCO2` (some centres unmarked) [Example 70, N-((2^1S,2^4S,5^2R,5^3S,5^5R)-1^4-methoxy-5^5-methyl-6-oxo-3,7,10-trioxa-1(2,6)-pyridina-5(2,1)-pyrrolidina-2(1,4)-cyclohexanacyclodecaphane-5^3-yl)methanesulfonamide], the Emax came out at 102%.

The same experiment, now with this note: hOX2R IP-One; percentage of mean max effect of a reference compound at 1 uM with 100% activity.
`CC1CC(NS(=O)(=O)N(C)C)C2COC3CCC(CC3)c3cccc(c3)OCCCOC(=O)N12` (centres unmarked) [Example 13]: the “Emax (%)” value is recorded as 99.3%.

The record behind these values is patent US20240002397A1, “3-AMINO PYRROLIDINE AND PIPERIDINE MACROCYCLIC OREXIN RECEPTOR AGONISTS” (Merck Sharp & Dohme LLC, priority 2020, published 2024).
